Reference: patent US20130178454A1, “COMBINATION OF TESTOSTERONE AND ORNITHINE DECARBOXYLASE (ODC) INHIBITORS” (priority 2011, published 2013)
Entries after “also recorded” stand apart in the source; their conditions may differ.

Experiments:
[1] = test system: castrated C57BL/6 mice; experiment: Prostate and levator ani muscle weights in castrated mice treated with testosterone or testosterone plus DFMO (FIG. 9); format: in vivo
Excerpt: Shown is a histogram showing prostate weights and levator ani muscle weights in vehicle-treated intact C57BL/6 mice, and castrated mice treated with vehicle, testosterone, or testosterone plus an ODC inhibitor DFMO.

[2] = test system: carcinogen-induced cancer development; details: variety of rodent models; cited from earlier work
[3] = molecular target: T1, ornithine decarboxylase (Homo sapiens, UniProt P11926); details: cited from earlier work
T1 sequence (P11926 1-461): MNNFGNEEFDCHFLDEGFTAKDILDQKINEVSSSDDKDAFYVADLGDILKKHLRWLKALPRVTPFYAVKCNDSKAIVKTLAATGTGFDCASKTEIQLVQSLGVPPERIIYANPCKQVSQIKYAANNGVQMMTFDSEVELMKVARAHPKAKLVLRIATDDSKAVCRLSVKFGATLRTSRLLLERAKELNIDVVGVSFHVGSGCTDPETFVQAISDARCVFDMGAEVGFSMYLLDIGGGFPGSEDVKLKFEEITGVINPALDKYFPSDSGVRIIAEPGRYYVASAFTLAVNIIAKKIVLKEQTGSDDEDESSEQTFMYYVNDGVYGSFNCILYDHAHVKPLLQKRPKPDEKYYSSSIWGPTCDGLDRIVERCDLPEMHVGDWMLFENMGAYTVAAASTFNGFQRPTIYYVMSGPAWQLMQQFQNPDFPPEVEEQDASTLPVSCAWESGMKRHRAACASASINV

[4] = test system: PCNA expression in the prostate epithelial cells; experiment: PCNA expression in prostate epithelial cells (FIG. 7C); format: cell-based; details: follistatin 1 ng/ml and 5 ng/ml, DHT 10 nM
[5] = test system: PSA expression in the prostate epithelial cells; experiment: PSA expression in prostate epithelial cells (FIG. 7B); format: cell-based; details: follistatin 1 ng/ml and 5 ng/ml, R1881 1 nM
[6] = test system: castrated (CX) mice; experiment: Histologic sections of the prostate in castrated mice (FIG. 7A); format: in vivo
[7] = test system: C3H 10T1/2 cells; details: 100 nm testosterone, 0.5 μg/ml anti-Fst antibody, rFst 0.2 μg/ml; cited from earlier work
[8] = test system: ornithine decarboxylase (ODC) and polyamine pathway in the prostate; experiment: Microarrays of prostate RNA from castrated mice treated with follistatin or testosterone (FIG. 8); format: in vivo; details: microarray
Excerpt: FIG. 8A is a schematic of microarray experiments to identify testosterone-selective signalling pathways in the prostate which are not activated by follistatin (Fst), and identify genes which are follistatin sensitive and those which are testosterone sensitive. Adult male mice were either sham-castrated or castrated under ketamine-xylazine anesthesia and treated with vehicle (sham), follistatin or testosterone. RNA was extracted from the prostate and levator ani muscle and subjected to microarrays. […] Shown in the box is the region of highly differentially expressed genes between the follistatin (Fst/CX) and testosterone (Tes/CX) treated mice.
Using microarrays, the inventors elucidated the signaling pathways that are differentially activated in the skeletal muscle and prostate by each of testosterone and follistatin, and assessed the pathways that are specifically activated in the prostate by testosterone, but were not follistatin (FIG. 8A-8B). The inventors determined that testosterone and follstatin both activate common signaling pathways that mediate their anabolic effects on the skeletal muscle, and specifically assessed if testosterone activates one or more unique signaling pathways in the prostate that are not activated by follistatin.

[9] = test system: older men with low or low normal testosterone levels; details: testosterone versus placebo; cited from earlier work
[10] = cited from earlier work
[11] = test system: Wnt target genes in 3T3-L1 cells; details: 3T3-L1 cells incubated with 100 nM testosterone; cited from earlier work
[12] = test system: C57BL/6 mice; experiment: Systemic follistatin treatment of mice: fat mass, lean mass, muscle and bone mass (FIG. 6); format: in vivo
[13] = test system: LNCaP cells; experiment: Proliferation of androgen-sensitive LNCaP cells in vitro; format: cell-based
[14] = mice in vivo, given with testosterone

NCCCC(N)(C(=O)O)C(F)F (racemic) [DFMO, (RS)-2,5-diamino-2-(difluoromethyl)pentanoic acid]
effect of the ODC inhibitor on testosterone's anabolic effect on the muscle [1, 14]: did not block testosterone's effect on the muscle; also recorded: maintaining muscle anabolic effects of testosterone | effect of the ODC inhibitor on testosterone-induced prostate growth [1, 14]: blocks testosterone's effects on the prostate; also recorded: suppresses testosterone-induced prostate growth in vivo | carcinogen-induced cancer development [2]: inhibit carcinogen-induced cancer development | inhibition of ornithine decarboxylase [3]: potent inhibitor of ornithine decarboxylase

C[C@]12CCC(=O)C[C@@H]1CC[C@@H]1[C@@H]2CC[C@]2(C)[C@@H](O)CC[C@@H]12 [DHT, Dihydrotestosterone]
PCNA expression [4]: upregulated PCNA expression

C[C@]1(O)CC[C@H]2[C@@H]3CCC4=CC(=O)CCC4=C3C=C[C@@]21C [R1881]
PSA expression [5]: stimulates PSA expression

C[C@]12CC[C@H]3[C@@H](CCC4=CC(=O)CC[C@@]43C)[C@@H]1CC[C@@H]2O [testosterone, 17-β-hydroxyandrost-4-en-3-one]
prostate growth and prostate glands [6]: restored prostate mass and growth of prostate glands | levator ani muscle mass (levator ani muscle weights) ([1]; castrated C57BL/6 mice): restored prostate as well as levator ani muscle mass | prostate mass (prostate weights) ([1]; castrated C57BL/6 mice): restored prostate as well as levator ani muscle mass | myogenic differentiation of mesenchymal multipotent cells [7]: promotes myogenic differentiation; also recorded: stimulate myogenic differentiation | polyamine biosynthetic pathway / ODC gene expression in the prostate [8]: activated by testosterone in the prostate | polyamine biosynthetic pathway / ODC gene expression in the prostate ([8]; listed as Testosterone): upregulate several biosynthetic pathways including the polyamine biosynthetic pathway | fat mass [9]: reduces fat mass | lean body mass, muscle strength and bone mineral density [9]: improves lean body mass (LBM), a measure of muscle mass, muscle strength and bone mineral density (BMD) | testosterone circulating unbound to plasma proteins [10]: Less than 2.5% | Fst, CD44 and Lef1 gene expression [11]: upregulation of Fst (follastin) and CD44 and Lef1 gene expression

B1: follistatin: an endogenous protein that increases muscle mass; recombinant Fst protein (protein, UniProt P19883 30-344, looked up)
Follistatin: GNCWLRQAKNGRCQVLYKTELSKEECCSTGRLSTSWTEEDVNDNTLFKWMIFNGGAPNCIPCKETCENVDCGPGKKCRMNKKNKPRCVCAPDCSNITWKGPVCGLDGKTYRNECALLKARCKEQPELEVQYQGRCKKTCRDVFCPGSSTCVVDQTNNAYCVTCNRICPEPASSEQYLCGNDGVTYSSACHLRKATCLLGRSIGLAYEGKCIKAKSCEDIQCTGGKKCLWDFKVGRGRCSLCDELCPDSKSDEPVCASDNATYASECAMKEAACSSGVLLEVKHSGSCNSISEDTEEEEEDEDQDYSFPISSILEW
prostate growth and prostate glands [6]: does not stimulate prostate growth; also recorded: did not stimulate prostate growth or glands | PSA expression [5]: nor does it up regulate PSA expression; also recorded: does not stimulate PSA expression | myogenic differentiation of mesenchymal multipotent cells [7]: stimulate myogenic differentiation | polyamine biosynthetic pathway / ODC gene expression in the prostate [8]: not upregulated | fat mass ([12]; castrated mice): reduces fat mass | muscle and bone mass ([12]; castrated mice): increases muscle and bone mass | lean body mass, measured by NMR ([12]; mice, 13 weeks systemic administration of 0, 10, 30 and 100 μg recombinant follistatin): increased dose-dependently | fat mass, expressed as a percent of body weight ([12]; mice, 13 weeks systemic administration of 10, 30 and 100 μg follistatin): fat mass is decreased | proliferation of androgen-sensitive LNCaP cells [13]: does not up stimulate the proliferation
